Patent publication US20260091026A1, “METHODS OF TREATING INFLAMMATORY DISEASES” (INTERLINE THERAPEUTICS, INC., priority 2023, published 2026)

Legend:
[1] = tested on: THP1-Dual cells, NF-κB pathway (SEAP); assay: THP-1 Dual cell SEAP assay (L18-MDP stimulated); type: cell-based; settings: Homo sapiens, 10 ng/mL L18-MDP, 20-24 h, SEAP readout, read-out: IFNγ THP1 IC50
How it was run: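 About 25,000 THP1-Dual cells per well were preincubated 30 min with serially diluted compound, then stimulated overnight (20-24 h, 37 °C) with 10 ng/mL L18-MDP (final). NF-κB-driven SEAP in supernatant was read with QUANTI-Blue at OD 620-655 nm after 2 h; % inhibition versus DMSO/L18-MDP wells was fitted by non-linear regression to give IC50.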

RIPK2 (KD)/XIAP (BIR2) = biological target: T1, RIPK2 (KD)/XIAP (BIR2) (Homo sapiens, UniProt O43353); assay: RIPK2-XIAP binding competition PPI assay (TR-FRET); settings: for Emax: 50 nM of GSK583 = -100% activity, read-out: PPI Amax; for IC50: GST-RIPK2 / His-XIAP (BIR2)-avi, 120 min at 23° C.
T1 construct: made in house; host or cells: baculovirus-infected Sf9 cells
T1 sequence (O43353 1-310): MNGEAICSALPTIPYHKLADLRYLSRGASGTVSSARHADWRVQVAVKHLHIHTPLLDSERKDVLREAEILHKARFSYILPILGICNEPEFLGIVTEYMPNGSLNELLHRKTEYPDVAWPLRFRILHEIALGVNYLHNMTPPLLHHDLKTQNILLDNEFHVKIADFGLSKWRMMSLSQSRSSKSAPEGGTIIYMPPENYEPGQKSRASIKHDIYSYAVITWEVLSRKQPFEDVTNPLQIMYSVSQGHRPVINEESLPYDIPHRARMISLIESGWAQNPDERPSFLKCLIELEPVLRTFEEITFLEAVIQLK
How it was run: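 TR-FRET competition between GST-RIPK2 (aa 1-310, 1 nM) and His-XIAP BIR2-avi (aa 152-231, 25 nM), both Sf9-expressed, detected with anti-His-XL665 and anti-GST-Tb in Tris pH 7.5 buffer with MgCl2, DTT and vanadate. Incubation was 120 min at 23 °C; the 665/520 nm ratio was normalized to no inhibitor (0%) and 50 nM GSK583 (−100%).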

| Compound | IC50 [1] | Emax (RIPK2 (KD)/XIAP (BIR2)) | IC50 (RIPK2 (KD)/XIAP (BIR2)) |
| --- | --- | --- | --- |
| COc1cn2ncc(-c3cc(C(=O)N[C@H](C)c4ccccn4)n(C)n3)c2cc1C1(F)CCN(C)CC1 [Example 58, (R)-3-(5-(4-fluoro-1-methylpiperidin-4-yl)-6-methoxypyrazolo[1,5-a]pyridin-3-yl)-1-methyl-N-(1-(pyridin-2-yl)ethyl)-1H-pyrazole-5-carboxamide] | 500 to 2500 nM | ≥ 80% | 100 to 1000 nM |
| COc1cc2ncc(-c3cc(C(=O)N[C@H](C)c4ccn(C)n4)n(C)n3)n2cc1S(=O)(=O)C(C)(C)C [Example 59, (R)-3-(6-(tert-butylsulfonyl)-7-methoxyimidazo[1,2-a]pyridin-3-yl)-1-methyl-N-(1-(1-methyl-1H-pyrazol-3-yl)ethyl)-1H-pyrazole-5-carboxamide] | 500 to 2500 nM | ≥ 80% | 100 to 1000 nM |
| COc1cc2ncc(-c3cc(C(=O)N[C@@H](C)c4ccn(C)n4)n(C)n3)n2cc1S(=O)(=O)C(C)(C)C [Example 60, (S)-3-(6-(tert-butylsulfonyl)-7-methoxyimidazo[1,2-a]pyridin-3-yl)-1-methyl-N-(1-(1-methyl-1H-pyrazol-3-yl)ethyl)-1H-pyrazole-5-carboxamide] | > 2500 nM | ≥ 80% | > 1000 nM |
| CC[C@@H](NC(=O)c1cc(-c2cnc3cc(OC)c(S(=O)(=O)C(C)(C)C)cn23)nn1C)c1ccccn1 [Example 61, (R)-3-(6-(tert-butylsulfonyl)-7-methoxyimidazo[1,2-a]pyridin-3-yl)-1-methyl-N-(1-(pyridin-2-yl)propyl)-1H-pyrazole-5-carboxamide] | > 2500 nM | ≥ 80% | 100 to 1000 nM |
| COc1cc2ncc(-c3cc(C(=O)N[C@@H](c4ccccn4)C(F)(F)F)n(C)n3)n2cc1S(=O)(=O)C(C)(C)C [Example 62, (S)-3-(6-(tert-butylsulfonyl)-7-methoxyimidazo[1,2-a]pyridin-3-yl)-1-methyl-N-(2,2,2-trifluoro-1-(pyridin-2-yl)ethyl)-1H-pyrazole-5-carboxamide] | 500 to 2500 nM | ≥ 80% | 100 to 1000 nM |
| COc1cc2ncc(-c3cc(C(=O)N[C@@H]4CCc5cccnc54)n(C)n3)n2cc1S(=O)(=O)C(C)(C)C [Example 63, (R)-3-(6-(tert-butylsulfonyl)-7-methoxyimidazo[1,2-a]pyridin-3-yl)-N-(6,7-dihydro-5H-cyclopenta[b]pyridin-7-yl)-1-methyl-1H-pyrazole-5-carboxamide] | > 2500 nM | ≥ 80% | 100 to 1000 nM |
| COc1cc2ncc(-c3cc(C(=O)N[C@H]4CCc5cccnc54)n(C)n3)n2cc1S(=O)(=O)C(C)(C)C [Example 64, (S)-3-(6-(tert-butylsulfonyl)-7-methoxyimidazo[1,2-a]pyridin-3-yl)-N-(6,7-dihydro-5H-cyclopenta[b]pyridin-7-yl)-1-methyl-1H-pyrazole-5-carboxamide] | 500 to 2500 nM | ≥ 80% | 10 to 100 nM |
| COc1cc2ncc(-c3cc(C(=O)NCc4ncccc4C)n(C)n3)n2cc1S(=O)(=O)C(C)(C)C [Example 65, 3-(6-(tert-butylsulfonyl)-7-methoxyimidazo[1,2-a]pyridin-3-yl)-1-methyl-N-((3-methylpyridin-2-yl)methyl)-1H-pyrazole-5-carboxamide] | > 2500 nM | ≥ 80% | 100 to 1000 nM |
| COc1cc2ncc(-c3cc(C(=O)NCc4ncccn4)n(C)n3)n2cc1S(=O)(=O)C(C)(C)C [Example 66, 3-(6-(tert-butylsulfonyl)-7-methoxyimidazo[1,2-a]pyridin-3-yl)-1-methyl-N-(pyrimidin-2-ylmethyl)-1H-pyrazole-5-carboxamide] | 500 to 2500 nM | ≥ 80% | 100 to 1000 nM |
| COc1cc2ncc(-c3cc(C(=O)NCc4cnccn4)n(C)n3)n2cc1S(=O)(=O)C(C)(C)C [Example 67, 3-(6-(tert-butylsulfonyl)-7-methoxyimidazo[1,2-a]pyridin-3-yl)-1-methyl-N-(pyrazin-2-ylmethyl)-1H-pyrazole-5-carboxamide] | > 2500 nM | 55 to 80% | > 1000 nM |
| COc1cc2ncc(-c3cc(C(=O)NCc4ccncn4)n(C)n3)n2cc1S(=O)(=O)C(C)(C)C [Example 68, 3-(6-(tert-butylsulfonyl)-7-methoxyimidazo[1,2-a]pyridin-3-yl)-1-methyl-N-(pyrimidin-4-ylmethyl)-1H-pyrazole-5-carboxamide] | > 2500 nM | ≤ 30% | > 1000 nM |
| COc1cc2ncc(-c3cc(C(=O)NCc4cccnn4)n(C)n3)n2cc1S(=O)(=O)C(C)(C)C [Example 69, 3-(6-(tert-butylsulfonyl)-7-methoxyimidazo[1,2-a]pyridin-3-yl)-1-methyl-N-(pyridazin-3-ylmethyl)-1H-pyrazole-5-carboxamide] | > 2500 nM | ≤ 30% | > 1000 nM |
| COc1cc2ncc(-c3cc(C(=O)NCc4ccnn4C)n(C)n3)n2cc1S(=O)(=O)C(C)(C)C [Example 70, 3-(6-(tert-butylsulfonyl)-7-methoxyimidazo[1,2-a]pyridin-3-yl)-1-methyl-N-((1-methyl-1H-pyrazol-5-yl)methyl)-1H-pyrazole-5-carboxamide] | > 2500 nM | 30 to 55% | > 1000 nM |
| COc1cc2ncc(-c3cc(C(=O)NCc4ncccc4Cl)n(C)n3)n2cc1S(=O)(=O)C(C)(C)C [Example 71, 3-(6-(tert-butylsulfonyl)-7-methoxyimidazo[1,2-a]pyridin-3-yl)-N-((3-chloropyridin-2-yl)methyl)-1-methyl-1H-pyrazole-5-carboxamide] | 500 to 2500 nM | ≥ 80% | 10 to 100 nM |
| COc1cc2ncc(-c3cc(C(=O)NCc4ncccc4OC)n(C)n3)n2cc1S(=O)(=O)C(C)(C)C [Example 72, 3-(6-(tert-butylsulfonyl)-7-methoxyimidazo[1,2-a]pyridin-3-yl)-N-((3-methoxypyridin-2-yl)methyl)-1-methyl-1H-pyrazole-5-carboxamide] | > 2500 nM | ≥ 80% | 100 to 1000 nM |
| COc1ccccc1CNC(=O)c1cc(-c2cnc3cc(OC)c(S(=O)(=O)C(C)(C)C)cn23)nn1C [Example 73, 3-(6-(tert-butylsulfonyl)-7-methoxyimidazo[1,2-a]pyridin-3-yl)-N-(2-methoxybenzyl)-1-methyl-1H-pyrazole-5-carboxamide] | 500 to 2500 nM | ≥ 80% | 10 to 100 nM |
| COc1cc2ncc(-c3cc(C(=O)NCc4ccccc4CO)n(C)n3)n2cc1S(=O)(=O)C(C)(C)C [Example 74, 3-(6-(tert-butylsulfonyl)-7-methoxyimidazo[1,2-a]pyridin-3-yl)-N-(2-(hydroxymethyl)benzyl)-1-methyl-1H-pyrazole-5-carboxamide] | 500 to 2500 nM | ≥ 80% | 10 to 100 nM |
| COc1ccccc1[C@@H](C)NC(=O)c1cc(-c2cnc3cc(OCCO)c(S(=O)(=O)C(C)(C)C)cn23)nn1C [Example 75, (R)-3-(6-(tert-butylsulfonyl)-7-(2-hydroxyethoxy)imidazo[1,2-a]pyridin-3-yl)-N-(1-(2-methoxyphenyl)ethyl)-1-methyl-1H-pyrazole-5-carboxamide] | 500 to 2500 nM | ≥ 80% | 10 to 100 nM |
| COc1cc2ncc(-c3cc(C(=O)NCc4nccn4C)n(C)n3)n2cc1S(=O)(=O)C(C)(C)C [Example 76, 3-(6-(tert-butylsulfonyl)-7-methoxyimidazo[1,2-a]pyridin-3-yl)-1-methyl-N-((1-methyl-1H-imidazol-2-yl)methyl)-1H-pyrazole-5-carboxamide] | > 2500 nM | ≤ 30% | > 1000 nM |
| COc1cc2ncc(-c3cc(C(=O)NCc4noc(C)n4)n(C)n3)n2cc1S(=O)(=O)C(C)(C)C [Example 77, 3-(6-(tert-butylsulfonyl)-7-methoxyimidazo[1,2-a]pyridin-3-yl)-1-methyl-N-((5-methyl-1,2,4-oxadiazol-3-yl)methyl)-1H-pyrazole-5-carboxamide] | > 2500 nM | ≥ 80% | 100 to 1000 nM |
| COc1cc2ncc(-c3cc(C(=O)NCc4nc(C)no4)n(C)n3)n2cc1S(=O)(=O)C(C)(C)C [Example 78, 3-(6-(tert-butylsulfonyl)-7-methoxyimidazo[1,2-a]pyridin-3-yl)-1-methyl-N-((3-methyl-1,2,4-oxadiazol-5-yl)methyl)-1H-pyrazole-5-carboxamide] | > 2500 nM | 55 to 80% | > 1000 nM |
| COc1cc2ncc(-c3cc(C(=O)NCc4nccc(C)n4)n(C)n3)n2cc1S(=O)(=O)C(C)(C)C [Example 79, 3-(6-(tert-butylsulfonyl)-7-methoxyimidazo[1,2-a]pyridin-3-yl)-1-methyl-N-((4-methylpyrimidin-2-yl)methyl)-1H-pyrazole-5-carboxamide] | > 2500 nM | ≥ 80% | 100 to 1000 nM |
| CCn1nc(-c2cnc3cc(OC)c(S(=O)(=O)C(C)(C)C)cn23)cc1C(=O)NCc1ncccn1 [Example 80, 3-(6-(tert-butylsulfonyl)-7-methoxyimidazo[1,2-a]pyridin-3-yl)-1-ethyl-N-(pyrimidin-2-ylmethyl)-1H-pyrazole-5-carboxamide] | 100 to 500 nM | ≥ 80% | 10 to 100 nM |
